Measurements: PubChem BioAssay AID1584 (NINDS Approved Drug Screening Program, 2009)
pEC50: −log10 of the molar value. Records with an inconclusive call do not appear.

Target: Huntingtin (Homo sapiens) (UniProt P42858)
Assay: inhibitors of mutant Htt aggregation in vitro, dose response, QA1 (AID 1584)
Settings: in vitro mutant huntingtin aggregation assay

Huntingtin (Homo sapiens), sequence (P42858 whole entry, looked up): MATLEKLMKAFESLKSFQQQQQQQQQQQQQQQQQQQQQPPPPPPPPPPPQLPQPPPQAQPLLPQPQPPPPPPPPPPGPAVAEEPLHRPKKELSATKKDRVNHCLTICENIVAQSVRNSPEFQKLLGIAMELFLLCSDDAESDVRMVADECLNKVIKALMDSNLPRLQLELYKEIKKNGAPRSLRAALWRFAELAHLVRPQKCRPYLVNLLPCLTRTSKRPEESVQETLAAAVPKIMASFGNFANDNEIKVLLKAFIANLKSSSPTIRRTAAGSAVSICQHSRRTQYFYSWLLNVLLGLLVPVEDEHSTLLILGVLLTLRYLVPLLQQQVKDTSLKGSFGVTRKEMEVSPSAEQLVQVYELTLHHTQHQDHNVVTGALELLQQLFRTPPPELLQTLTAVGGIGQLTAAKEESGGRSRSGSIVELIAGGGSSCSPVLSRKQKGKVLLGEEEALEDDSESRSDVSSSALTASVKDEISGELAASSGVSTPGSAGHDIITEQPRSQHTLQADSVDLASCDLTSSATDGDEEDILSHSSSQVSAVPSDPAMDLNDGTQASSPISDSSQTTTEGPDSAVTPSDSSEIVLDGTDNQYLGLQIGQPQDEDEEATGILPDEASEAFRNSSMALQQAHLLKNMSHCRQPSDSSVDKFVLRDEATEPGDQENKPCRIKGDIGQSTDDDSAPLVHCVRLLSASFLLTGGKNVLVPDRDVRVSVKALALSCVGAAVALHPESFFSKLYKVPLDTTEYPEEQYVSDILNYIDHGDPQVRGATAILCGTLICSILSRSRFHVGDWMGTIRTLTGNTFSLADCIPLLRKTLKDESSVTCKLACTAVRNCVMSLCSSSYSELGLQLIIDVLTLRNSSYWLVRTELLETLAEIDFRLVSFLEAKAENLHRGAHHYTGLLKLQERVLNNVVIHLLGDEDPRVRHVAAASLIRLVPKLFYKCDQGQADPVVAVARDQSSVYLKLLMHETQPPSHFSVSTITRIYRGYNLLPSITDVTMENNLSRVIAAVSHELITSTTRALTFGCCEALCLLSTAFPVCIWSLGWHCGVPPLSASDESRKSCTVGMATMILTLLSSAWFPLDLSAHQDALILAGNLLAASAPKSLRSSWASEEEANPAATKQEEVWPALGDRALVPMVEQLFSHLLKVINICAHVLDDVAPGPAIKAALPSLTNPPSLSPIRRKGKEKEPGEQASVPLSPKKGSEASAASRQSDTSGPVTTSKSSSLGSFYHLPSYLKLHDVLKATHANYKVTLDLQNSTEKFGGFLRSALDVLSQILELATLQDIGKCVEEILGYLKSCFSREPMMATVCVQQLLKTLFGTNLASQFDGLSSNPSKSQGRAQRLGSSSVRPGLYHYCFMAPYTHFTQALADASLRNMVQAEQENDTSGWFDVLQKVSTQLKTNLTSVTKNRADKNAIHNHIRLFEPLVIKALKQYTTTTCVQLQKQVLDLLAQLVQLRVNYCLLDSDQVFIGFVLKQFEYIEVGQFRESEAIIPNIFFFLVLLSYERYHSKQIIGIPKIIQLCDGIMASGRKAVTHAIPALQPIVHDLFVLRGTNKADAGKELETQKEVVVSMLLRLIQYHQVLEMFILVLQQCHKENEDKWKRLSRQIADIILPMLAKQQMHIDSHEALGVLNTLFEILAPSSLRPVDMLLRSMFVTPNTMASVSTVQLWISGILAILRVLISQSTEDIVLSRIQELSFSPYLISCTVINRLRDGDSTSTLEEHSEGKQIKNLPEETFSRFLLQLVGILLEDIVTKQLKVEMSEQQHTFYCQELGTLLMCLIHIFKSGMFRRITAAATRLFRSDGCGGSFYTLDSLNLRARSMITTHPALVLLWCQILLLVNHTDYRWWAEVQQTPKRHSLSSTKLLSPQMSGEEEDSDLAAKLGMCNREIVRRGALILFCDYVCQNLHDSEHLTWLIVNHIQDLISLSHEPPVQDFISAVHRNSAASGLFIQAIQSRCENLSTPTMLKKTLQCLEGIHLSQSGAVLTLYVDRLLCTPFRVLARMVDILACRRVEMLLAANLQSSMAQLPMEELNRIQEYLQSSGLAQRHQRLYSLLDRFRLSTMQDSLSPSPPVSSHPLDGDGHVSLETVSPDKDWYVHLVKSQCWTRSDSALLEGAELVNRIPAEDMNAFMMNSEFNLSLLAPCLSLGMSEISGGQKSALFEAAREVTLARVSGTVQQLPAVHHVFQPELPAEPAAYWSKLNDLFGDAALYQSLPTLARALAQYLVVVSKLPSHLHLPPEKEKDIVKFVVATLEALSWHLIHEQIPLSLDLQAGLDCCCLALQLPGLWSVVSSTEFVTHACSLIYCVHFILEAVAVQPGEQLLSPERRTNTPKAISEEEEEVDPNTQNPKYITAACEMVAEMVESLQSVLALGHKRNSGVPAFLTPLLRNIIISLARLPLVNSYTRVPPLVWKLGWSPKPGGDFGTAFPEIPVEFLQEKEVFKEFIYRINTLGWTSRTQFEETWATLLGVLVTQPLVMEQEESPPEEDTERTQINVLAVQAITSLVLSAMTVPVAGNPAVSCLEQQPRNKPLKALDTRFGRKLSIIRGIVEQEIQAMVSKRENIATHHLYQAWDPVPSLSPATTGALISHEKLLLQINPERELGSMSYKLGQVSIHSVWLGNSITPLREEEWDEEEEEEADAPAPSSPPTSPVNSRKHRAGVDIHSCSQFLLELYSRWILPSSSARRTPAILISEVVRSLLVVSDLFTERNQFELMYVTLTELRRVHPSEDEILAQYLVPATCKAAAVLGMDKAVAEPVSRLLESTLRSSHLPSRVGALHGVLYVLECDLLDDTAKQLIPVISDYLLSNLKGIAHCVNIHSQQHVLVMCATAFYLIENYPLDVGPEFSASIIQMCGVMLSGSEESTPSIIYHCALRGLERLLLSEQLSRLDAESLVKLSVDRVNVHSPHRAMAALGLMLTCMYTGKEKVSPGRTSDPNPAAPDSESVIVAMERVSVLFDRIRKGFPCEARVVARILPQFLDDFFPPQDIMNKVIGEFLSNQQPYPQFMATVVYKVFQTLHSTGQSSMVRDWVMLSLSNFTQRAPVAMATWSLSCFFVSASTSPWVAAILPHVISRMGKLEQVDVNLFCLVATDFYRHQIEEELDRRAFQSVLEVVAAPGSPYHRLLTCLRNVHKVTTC

SMILES	pEC50
C=C1c2c(Cl)ccc(O)c2C(O)=C2C(=O)[C@]3(O)C(O)=C(C(N)=O)C(=O)[C@@H](N(C)C)[C@@H]3[C@@H](O)[C@H]12	4.83
CC(C)=CCCC1(C)C=Cc2c(O)c3c(c(CC=C(C)C)c2O1)OC12C(=CC4CC1C(C)(C)OC2(C/C=C(/C)C(=O)O)C4=O)C3=O (stereo not given)	6.06
O=C1c2c(O)cccc2Cc2cccc(O)c21	4.98
Cc1cc(/C=C/c2ccc3cc(N(C)C)ccc3[n+]2C)c(C)n1-c1ccccc1	4.66
O=C1C=CC(=O)c2c(O)cccc21	5.57
O=c1c(O)c(-c2ccc(O)cc2O)oc2cc(O)cc(O)c12	4.77
C[C@@]1(C(=O)O)CC[C@]2(C)CC[C@]3(C)C4=CC=C5C=C(O)C(=O)C=C5[C@]4(C)CC[C@@]3(C)[C@@H]2C1	5.45
C=Cc1c(C)c2cc3[nH]c(cc4nc(cc5nc(cc1[nH]2)C(C)=C5CCC(=O)O)C(CCC(=O)O)=C4C)c(C)c3C=C	4.71
C[n+]1cc2c3c(ccc2c2ccc4cc5c(cc4c21)OCO5)OCO3	5.24
Cc1cc2c(C(C)C)c(O)c(O)c(C=O)c2c(O)c1-c1c(C)cc2c(C(C)C)c(O)c(O)c(C=O)c2c1O	6.19
